From US9573913B2, “Cathepsin cysteine protease inhibitors” (Merck Sharp & Dohme Corp., priority 2013, dated 2017)

Columns and labels:
[1] = molecular target: human cathepsin K (UniProt P43236); experiment: Cathepsin K Assay (hrbCat K); format: biochemical; conditions: Z-Leu-Arg-AMC substrate, pH 5.5, 15 min preincubation; read-out: hrbCat K (IP (nM))
How it was run: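 Human cathepsin K (0.4 nM) was preincubated 15 min at room temperature with compound in 50 mM MES pH 5.5, 2.5 mM EDTA, 2.5 mM DTT and 10% DMSO. Inhibition was fitted to a dose-response model.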

[2] = molecular target: T1, human cathepsin F (Homo sapiens, UniProt Q9UBX1); experiment: Cathepsin F assay (hCat F); format: biochemical; conditions: Z-Phe-Arg-AMC substrate, pH 5.5, 15 min preincubation; read-out: hCat F (IP (nM))
T1 sequence (Q9UBX1 271-484): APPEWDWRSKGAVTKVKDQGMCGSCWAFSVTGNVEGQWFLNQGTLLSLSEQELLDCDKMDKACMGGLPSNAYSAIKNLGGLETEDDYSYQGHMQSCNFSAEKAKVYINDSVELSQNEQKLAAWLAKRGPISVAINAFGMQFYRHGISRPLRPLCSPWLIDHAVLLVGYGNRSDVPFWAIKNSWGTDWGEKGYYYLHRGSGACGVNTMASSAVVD
How it was run: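 Enzyme (10 nM) was preincubated 15 min at room temperature with compounds (1/3 DMSO dilution series, 500–0.025 μM) in 50 mM MES pH 5.5, 2.5 mM EDTA, 2.5 mM DTT, 10% DMSO. Z-Phe-Arg-AMC (8 μM) was added and AMC fluorescence (Ex 360/Em 460 nm) followed for 20 min. % inhibition was fitted to dose-response curves.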

Row | Structure (SMILES) | IC50 [1] [nM] | IC50 [2] [nM]
1 | N#CC1(NC(=O)[C@@H]2CCC(Cl)(Cl)C[C@H]2c2nc(-c3ccc(F)cn3)sc2-c2ccc(N3CCS(=O)(=O)CC3)cc2)CC1 [Example 204, (1R,2R)-4,4-dichloro-N-(1-cyanocyclopropyl)-2-(5-(4-(1,1-dioxidothiomorpho-lino)phenyl)-2-(5-fluoropyridin-2-yl)thiazol-4-yl)cyclohexane-carboxamide] | 88.2 | 3330
2 | Cc1nc([C@@H]2CC[C@H](F)C[C@H]2C(=O)NC2(C#N)CC2)c(-c2ccc(N3CCS(=O)(=O)CC3)cc2)s1 [Example 205, (1R,2R,5S)-N-(1-cyanocyclopropyl)-2-(5-(4-(1,1-dioxidothiomorpho-lino)phenyl)-2-methylthiazol-4-yl)-5-fluorocyclohexane-carboxamide] | 6.4 | ≥ 10000
3 | Cc1nc([C@@H]2CC[C@H](F)C[C@H]2C(=O)N[C@@H](C)C#N)c(-c2ccc(N3CCS(=O)(=O)CC3)cc2)s1 [Example 206, (1R,2R,5S)-N-((S)-1-cyanoethyl)-2-(5-(4-(1,1-dioxidothiomorpho-lino)phenyl)-2-methylthiazol-4-yl)-5-fluorocyclohexane-carboxamide] | 5 | 9010
4 | C[C@@H](C#N)NC(=O)[C@@H]1C[C@@H](F)CC[C@H]1c1nc(C(C)(C)C)sc1-c1ccc(N2CCS(=O)(=O)CC2)cc1 [Example 207, (1R,2R,5S)-2-(2-(tert-butyl)-5-(4-(1,1-dioxidothiomorpho-lino)phenyl)thiazol-4-yl)-N-((S)-1-cyanoethyl)-5-fluorocyclohexane-carboxamide] | 1.6 | 2570
5 | CC(C)(O)c1nc([C@@H]2CCCC[C@H]2C(=O)NC2(C#N)CC2)c(-c2ccc(N3CCS(=O)(=O)CC3)cc2)s1 [Example 208, (1R,2R)-N-(1-cyanocyclopropyl)-2-(5-(4-(1,1-dioxidothiomorpho-lino)phenyl)-2-(2-hydroxypropan-2-yl)thiazol-4-yl)cyclohexane-carboxamide] | 7.9 | ≥ 10000
6 | CC(C)[C@@H](C#N)NC(=O)[C@@H]1C[C@@H](F)CC[C@H]1c1nc(-c2cncc(F)c2)sc1-c1ccc(N2CCS(=O)(=O)CC2)cc1 [Example 209, (1R,2R,5S)-N-((S)-1-cyano-2-methylpropyl)-2-(5-(4-(1,1-dioxidothiomorpho-lino)phenyl)-2-(5-fluoropyridin-3-yl)thiazol-4-yl)-5-fluorocyclohexane-carboxamide] | 1.5 | 1000
7 | Cc1nc([C@@H]2CC[C@H](F)C[C@H]2C(=O)N[C@H](C#N)C(C)C)c(-c2ccc(N3CCS(=O)(=O)CC3)cc2)s1 [Example 210, (1R,2R,5S)-N-((S)-1-cyano-2-methylpropyl)-2-(5-(4-(1,1-dioxidothiomorpho-lino)phenyl)-2-methylthiazol-4-yl)-5-fluorocyclohexane-carboxamide] | 11.4 | 9900
8 | N#CC1(NC(=O)[C@@H]2CCCC[C@H]2c2nc(-c3ccc(F)cn3)sc2-c2ccc(N3CCS(=O)(=O)CC3)cc2)COC1 [Example 211, (1R,2R)-N-(3-cyanooxetan-3-yl)-2-(5-(4-(1,1-dioxidothiomorpho-lino)phenyl)-2-(5-fluoropyridin-2-yl)thiazol-4-yl)cyclohexane-carboxamide] | 1.7 | 289
9 | C[C@@H](C#N)NC(=O)[C@@H]1C[C@@H](F)CC[C@H]1c1nc(C2CC(F)(F)C2)sc1-c1ccc(N2CCS(=O)(=O)CC2)cc1 [Example 212, (1R,2R,5S)-N-((S)-1-cyanoethyl)-2-(2-(3,3-difluorocyclobutyl)-5-(4-(1,1-dioxidothiomorpho-lino)phenyl)thiazol-4-yl)-5-fluorocyclohexane-carboxamide] | 4.2 | 6700
10 | CC(C)[C@@H](C#N)NC(=O)[C@@H]1C[C@@H](F)CC[C@H]1c1nc(C2CC(F)(F)C2)sc1-c1ccc(N2CCS(=O)(=O)CC2)cc1 [Example 213] | 7.8 | ≥ 10000
11 | Cc1ccc(-c2nc([C@@H]3CC[C@H](F)C[C@H]3C(=O)NC3(C#N)CC3)c(-c3ccc(N4CCOCC4)cc3)s2)nn1 [Example 216, (1R,2R,5S)-N-(1-cyanocyclopropyl)-5-fluoro-2-(2-(6-methylpyridazin-3-yl)-5-(4-morpholinophenyl)thiazol-4-yl)cyclohexane-carboxamide] | 7.1 | 2480
12 | Cc1ccc(-c2nc([C@@H]3CC[C@H](F)C[C@H]3C(=O)N[C@H](C#N)C(C)C)c(-c3ccc(N4CCS(=O)(=O)CC4)cc3)s2)nn1 [Example 217, (1R,2R,5S)-N-((S)-1-cyano-2-methylpropyl)-2-(5-(4-(1,1-dioxidothiomorpho-lino)phenyl)-2-(6-methylpyridazin-3-yl)thiazol-4-yl)-5-fluorocyclohexane-carboxamide] | 1.5 | 2930
13 | C[C@@H](C#N)NC(=O)[C@@H]1C[C@@H](F)CC[C@H]1c1nc(C(F)F)sc1-c1ccc(N2CCS(=O)(=O)CC2)cc1 [Example 220, (1R,2R,5S)-N-((S)-1-cyanoethyl)-2-(2-(difluoromethyl)-5-(4-(1,1-dioxidothiomorpho-lino)phenyl)thiazol-4-yl)-5-fluorocyclohexane-carboxamide] | 1.6 | 2090
14 | Cc1ccc(-c2nc([C@@H]3CC[C@H](F)C[C@H]3C(=O)NC3(C#N)CC3)c(-c3ccc(N4CCC(C)(O)CC4)cc3)s2)nn1 [Example 222, (1R,2R,5S)-N-(1-cyanocyclopropyl)-5-fluoro-2-(5-(4-(4-hydroxy-4-methylpiperidin-1-yl)phenyl)-2-(6-methylpyridazin-3-yl)thiazol-4-yl)cyclohexane-carboxamide] | 6.2 | 2050
15 | Cc1ccc(-c2nc([C@@H]3CC[C@H](F)C[C@H]3C(=O)NC3(C#N)CC3)c(-c3ccc(N4CCC(S(C)(=O)=O)CC4)cc3)s2)nn1 [Example 223, (1R,2R,5S)-N-(1-cyanocyclopropyl)-5-fluoro-2-(2-(6-methylpyridazin-3-yl)-5-(4-(4-(methylsulfonyl)piperidin-1-yl)phenyl)thiazol-4-yl)cyclohexane-carboxamide] | 2.9 | 2230
16 | CC(C)(CO)c1nc([C@@H]2CCCC[C@H]2C(=O)NC2(C#N)CC2)c(-c2ccc(N3CCS(=O)(=O)CC3)cc2)s1 [Example 224, (1R,2R)-N-(1-cyanocyclopropyl)-2-(5-(4-(1,1-dioxidothiomorpho-lino)phenyl)-2-(1-hydroxy-2-methylpropan-2-yl)thiazol-4-yl)cyclohexane-carboxamide] | 3.3 | ≥ 10000
17 | C[C@@H](C#N)NC(=O)[C@@H]1CCCC[C@H]1c1nc(C(C)(C)CO)sc1-c1ccc(N2CCS(=O)(=O)CC2)cc1 [Example 225, (1R,2R)-N-((S)-1-cyanoethyl)-2-(5-(4-(1,1-dioxidothiomorpho-lino)phenyl)-2-(1-hydroxy-2-methylpropan-2-yl)thiazol-4-yl)cyclohexane-carboxamide] | 1.6 | 1040
18 | Cc1nc([C@@H]2CC[C@H](F)C[C@H]2C(=O)N[C@@H](C)C#N)c(-c2ccc(N3CCOCC3)cc2)s1 [Example 230, (1R,2R,5S)-N-((S)-1-cyanoethyl)-5-fluoro-2-(2-methyl-5-(4-morpholinophenyl)thiazol-4-yl)cyclohexane-carboxamide] | 45.5 | 3330
19 | C[C@@H](C#N)NC(=O)[C@@H]1C[C@@H](F)CC[C@H]1c1nc(C2(C(F)(F)F)CC2)sc1-c1ccc(N2CCS(=O)(=O)CC2)cc1 [Example 231, (1R,2R,5S)-N-((S)-1-cyanoethyl)-2-(5-(4-(1,1-dioxidothiomorpho-lino)phenyl)-2-(1-(trifluoromethyl)cyclopropyl)thiazol-4-yl)-5-fluorocyclohexane-carboxamide] | 2.8 | 3140
20 | N#CC1(NC(=O)[C@@H]2C[C@@H](F)CC[C@H]2c2nc(C3(C(F)(F)F)CC3)sc2-c2ccc(N3CCS(=O)(=O)CC3)cc2)CC1 [Example 232, (1R,2R,5S)-N-(1-cyanocyclopropyl)-2-(5-(4-(1,1-dioxidothiomorpho-lino)phenyl)-2-(1-(trifluoromethyl)cyclopropyl)thiazol-4-yl)-5-fluorocyclohexane-carboxamide] | 5 | ≥ 10000
21 | C[C@@H](C#N)NC(=O)[C@@H]1C[C@@H](F)CC[C@H]1c1nc(CF)sc1-c1ccc(N2CCS(=O)(=O)CC2)cc1 [Example 237, (1R,2R,5S)-N-((S)-1-cyanoethyl)-2-(5-(4-(1,1-dioxidothiomorpho-lino)phenyl)-2-(fluoromethyl)thia-zol-4-yl)-5-fluorocyclohexane-carboxamide] | 4.1 | 6830
22 | N#CC1(NC(=O)[C@@H]2C[C@@H](F)CC[C@H]2c2nc(CF)sc2-c2ccc(N3CCS(=O)(=O)CC3)cc2)CC1 [Example 238, (1R,2R,5S)-N-(1-cyanocyclopropyl)-2-(5-(4-(1,1-dioxidothiomorpho-lino)phenyl)-2-(fluoromethyl)thia-zol-4-yl)-5-fluorocyclohexane-carboxamide] | 3.5 | 3170
23 | Cc1nc([C@@H]2CC[C@H](F)C[C@H]2C(=O)N[C@@H](C)C#N)c(-c2ccc(N3CCC(F)(F)CC3)cc2)s1 [Example 239, (1R,2R,5S)-N-((S)-1-cyanoethyl)-2-(5-(4-(4,4-difluoropiperidin-1-yl)phenyl)-2-methylthiazol-4-yl)-5-fluorocyclohexane-carboxamide] | 8.5 | 5340
